Laboratory results as given in patent publication CN112516145A, “小分子化合物wk369在制备治疗卵巢癌药物中的应用” (East China Normal University, priority 2019, dated 2021).

How the values were obtained:
[1] = animal level; cited from earlier work
[2] = biological target: T1, BCL6 (Homo sapiens, UniProt P41182); conditions: cited from earlier work
[3] = system: patients with platinum-sensitive recurrent ovarian cancer (铂敏感的复发型卵巢癌患者); conditions: clinical phase II and III; cited from earlier work
[4] = biological target: T1, BCL6; conditions: greater than 50 or even 200; cited from earlier work
[5] = system: CDKN1A; test: qRT-PCR of BCL6 downstream gene CDKN1A in ovarian cancer cells; assay type: cell-based; conditions: ES-2, H08910PM, SKOV3, 24 h
[6] = system: BCL6 downstream genes ATR, P53, CDKN1A (BCL6下游基因); test: qPCR of BCL6 downstream genes in SKOV3 xenograft; assay type: in vivo, human SKOV3 cells in nude mouse
[7] = system: ES-2 cells; test: Apoptosis by AnnexinV/PI flow cytometry, ES-2; assay type: cell-based, human; conditions: ES-2, 48 h
[8] = Body weight, behaviour and organ HE staining in SKOV3 xenograft mice
[9] = mouse, in vivo
[10] = system: CyclinB1, cdc25C, CyclinD1; test: Cell cycle regulatory proteins by electrophoresis (blot), ES-2; assay type: cell-based, human
[11] = system: SKOV3 cells; test: Cell cycle by flow cytometry, SKOV3; assay type: cell-based, human; conditions: SKOV3, 24 h
[12] = system: Ki67; test: Immunohistochemistry of Ki67 in SKOV3 xenograft; assay type: in vivo, human SKOV3 cells in nude mouse
[13] = system: PARP; test: PARP protein by electrophoresis (blot), SKOV3; assay type: cell-based, human
[14] = system: ES-2 cells; test: Transwell invasion assay, ES-2; assay type: cell-based, human
[15] = system: SKOV3 cells; test: Transwell invasion assay, SKOV3; assay type: cell-based, human
[16] = system: BCL6-high-expressing ovarian cancer cells ES-2, SKOV3, H08910PM, MCAS, CAOV3, OVCAR8 (BCL6高表达卵巢癌细胞); test: Colony formation assay; assay type: cell-based, human
[17] = system: BCL6-low-expressing ovarian cancer cell line IGROV-1 (BCL6低表达卵巢癌细胞株); test: SRB proliferation assay, BCL6-low ovarian cancer cell line; assay type: cell-based, human
[18] = system: ES-2 cells; test: ES-2-luc ovarian cancer intraperitoneal metastasis mouse model; assay type: in vivo, human ES-2 cells in mouse; conditions: 50mg/kg
[19] = system: P53; test: qRT-PCR of BCL6 downstream gene P53 in ovarian cancer cells; assay type: cell-based; conditions: ES-2, H08910PM, SKOV3, 24 h
[20] = system: BCL6 transcriptional repression activity (BCL6的转录抑制活性); test: Luciferase reporter gene assay of BCL6 transcriptional repression (293T cells); assay type: cell-based; conditions: 24 h
[21] = system: CyclinB1, cdc25C, CyclinD1; test: Cell cycle regulatory proteins by electrophoresis (blot), SKOV3; assay type: cell-based, human
[22] = system: ATR; test: qRT-PCR of BCL6 downstream gene ATR in ovarian cancer cells; assay type: cell-based; conditions: ES-2, H08910PM, SKOV3, 24 h
[23] = system: PARP; test: PARP protein by electrophoresis (blot), ES-2; assay type: cell-based, human
[24] = system: SKOV3 cells; test: Scratch lateral migration assay, SKOV3; assay type: cell-based, human; conditions: 1, 5, 10 μM, about 12 h
[25] = system: mouse germinal center formation (小鼠生发中心的形成); test: Mouse germinal center formation model; assay type: in vivo; conditions: 50mg/kg/d, intraperitoneal, 12 days
[26] = system: ES-2 cells; test: Scratch lateral migration assay, ES-2; assay type: cell-based, human; conditions: 1, 5, 10 μM, about 12 h
[27] = system: ES-2 cells; test: Cell cycle by flow cytometry, ES-2; assay type: cell-based, human; conditions: ES-2, 24 h
[28] = Behaviour and adverse reactions in ES-2 intraperitoneal metastasis mice; conditions: 50mg/kg, continuous dosing, 30 days
[29] = system: normal cell lines HAF, L02, NCM460, 293T, PNT1A (正常细胞株); test: SRB proliferation assay, normal cell lines; assay type: cell-based, human; conditions: Fig. 4(C)
[30] = system: SKOV3 tumor (SKOV3肿瘤); test: SKOV3 subcutaneous xenograft in nude mice, tumor growth; assay type: in vivo, human SKOV3 cells in nude mouse; conditions: intraperitoneal once daily, about 21 days
[31] = system: SKOV3 cells; test: Apoptosis by AnnexinV/PI flow cytometry, SKOV3; assay type: cell-based, human; conditions: SKOV3, 48 h
[32] = biological target: T2, BCL6-SMRT interaction (BCL6片段蛋白与多肽SMRT的相互作用) (Homo sapiens, UniProt P41182); test: HTRF assay of inhibition of BCL6 fragment protein - SMRT polypeptide interaction; assay type: biochemical
T2 construct: 本发明所需BCL6蛋白N端的BTB/POZ结构域序列为; made in house

In the case of `CNC(=O)COc1cc2cc(Nc3nc(N4C[C@H](C)C[C@H](C)C4)ncc3Cl)ccc2n(C)c1=O` [BI3802], the absorption [1] is listed as “很难被吸收” and the “biological activity at animal level” value [2] is listed as “生物活性差”.

For `O=C(c1cc(Cc2n[nH]c(=O)c3ccccc23)ccc1F)N1CCN(C(=O)C2CC2)CC1` [奥卡帕尼], the “overall survival (OS)” value [3] is listed as “并不能延长”.

For `O=C(O)CC(C(=O)O)N1C(=O)C(=C2C(=O)Nc3ccc(Br)cc32)SC1=S` (stereo not shown) [79-6], the “concentration exerting function at molecular and cellular level” value [4] is given as over 50 µM.

For `C[C@@H]1CN(c2ncc(F)c(Nc3ccc4oc(=O)ccc4c3)n2)C[C@H](C)N1` [WK369], the “upregulation of CDKN1A expression” value ([5]; 1, 5, 10, 20 μM, highest) was “最高可上调几十倍”, the “upregulation of CDKN1A expression compared with FX1” value ([5]; FX1 20 μM) was “更为显著地上调” and the “upregulation of BCL6 downstream genes in vivo compared with positive compound” value [6] was “更好地上调”. For the same compound, the “induction of apoptosis compared with positive compound” value [7] was “更显著地诱导”, the “toxicity to major organs (heart, liver, spleen, lung, kidney), HE staining” value [8] was “没有明显毒性” and the “abnormal behaviour and adverse reactions” value [9] was “并未发现小鼠异常行为和不良反应”. The “body weight change compared with blank control” value [9] was “没有明显变化”, the CyclinB1 expression [10] was “显著下调” and the CyclinD1 expression [10] was “显著下调”. For the same compound, the cdc25C expression [10] was “显著下调”, the “cell cycle arrest at G2M phase” value [11] was “浓度依赖性地诱导” and the “expression of tumor proliferation marker Ki67” value [12] was “显著降低”. For the same compound, the “full-length PARP protein” value [13] was “显著下调”, the “truncated PARP protein” value [13] was “上调” and the “number of invading cells” value ([14]; ES-2, 1 μM, 12-24 h) was “已显著减少”. The cells that invade ([14]; ES-2, 10 μM, 12-24 h) was “只有极少数的细胞发生侵袭”, the inhibition of invasion ([14]; ES-2, high concentration (FX1 10 μM), WK369 1, 5, 10 μM) was “显著抑制” and the “number of invading cells” value ([15]; SKOV3, 1 μM, 12-24 h) was “已显著减少”. The cells that invade ([15]; SKOV3, 10 μM, 12-24 h) was “只有极少数的细胞发生侵袭”, the inhibition of invasion ([15]; SKOV3, high concentration (FX1 10 μM), WK369 1, 5, 10 μM) was “显著抑制” and the “inhibition of colony formation compared with FX1” value ([16]; BCL6-high-expressing lines) was “显著优于阳性化合物FX1”. The “inhibition of colony formation” value ([16]; BCL6-high-expressing lines, one week) was “很显著的抑制效果”, the “inhibition of colony formation, BCL6-high compared with BCL6-low ovarian cancer cell lines” value ([16]; compared with BCL6-low-expressing line) was “对BCL6高表达卵巢癌细胞株的抑制效果更为明显” and the IC50 ([17]; BCL6-low-expressing ovarian cancer cells (IGROV-1), 72 h, read-out: half-maximal proliferation inhibition activity) was about 16 µM. The “difference in half-maximal proliferation inhibition activity between BCL6-high and BCL6-low ovarian cancer cell lines” value ([17]; Fig. 4(D)) was “具有显著性差异”, the “survival rate of mice” value [18] was “有效提高” and the “intraperitoneal spread and metastasis” value ([18]; 30 days) was “有效抑制”. The “tumor growth (bioluminescence)” value ([18]; 30 days) was “显著降低”, the “number of tumor nodules on the surface of abdominal organs (liver, spleen, kidney, intestine, ovary)” value ([18]; 30 days, compared with control group) was “明显减少” and the “upregulation of P53 expression” value ([19]; 1, 5, 10, 20 μM) was “几倍至十几倍”. For the same compound, the “upregulation of P53 expression compared with FX1” value ([19]; FX1 20 μM) was “更为显著地上调”, the “BCL6 transcriptional repression activity at 20 μM” value ([20]; 20 μM) was “完全消除” and the “inhibition of BCL6 transcriptional repression activity” value ([20]; concentration series, compared with positive compound) was “浓度依赖性抑制BCL6的转录抑制活性,效果显著优于阳性化合物”. The CyclinB1 expression [21] was “显著下调”, the CyclinD1 expression [21] was “显著下调” and the cdc25C expression [21] was “显著下调”. For the same compound, the “upregulation of ATR expression” value ([22]; 1, 5, 10, 20 μM) was “几倍至十几倍”, the “upregulation of ATR expression compared with FX1” value ([22]; FX1 20 μM) was “更为显著地上调” and the “full-length PARP protein” value [23] was “显著下调”. For the same compound, the “truncated PARP protein” value [23] was “上调”, the inhibition of migration [24] was “浓度依赖性地抑制” and the “decrease in germinal center B cell proportion compared with positive compound” value [25] was “下降比例更为显著”. For the same compound, the “inhibition of mouse germinal center formation” value [25] was “均能抑制小鼠生发中心的形成”, the inhibition of migration [26] was “浓度依赖性地抑制” and the “cell cycle arrest at G2M phase” value [27] was “浓度依赖性地诱导”. The toxicity [28] was “没有明显毒性”, the “difference in half-maximal proliferation inhibition activity between human ovarian cancer and human normal cell lines” value [29] was “具有显著性差异” and the “inhibition of tumor growth compared with FX1 (50mg/kg)” value ([30]; 25mg/kg) was “显著优于阳性化合物FX1”. The “inhibition of tumor growth, 50mg/kg compared with 25mg/kg” value ([30]; 50mg/kg vs 25mg/kg) was “效果显著优于本发明化合物WK36925mg/kg的给药剂量”, the tumor proliferation ([30]; 50mg/kg) was “肿瘤增殖非常缓慢” and the “inhibition of tumor growth” value ([30]; 25 and 50mg/kg) was “有效抑制肿瘤的生长”. For the same compound, the “induction of apoptosis compared with positive compound” value [31] was “更显著地诱导”, the IC50 ([32]; 6His-SMRT 200 nM, BCL6-GST 6.25 nM, room temperature overnight, read-out: half-maximal inhibitory concentration (IC50)) was 0.315 µM and the “fold improvement over FX1 in inhibiting BCL6 fragment protein - SMRT interaction” value ([32]; WK369 versus positive compound FX1) was about 120 fold.
